Measured values as given in ChEMBL document CHEMBL1144445, “Design, synthesis and antiviral activity of novel 4,5-disubstituted 7-(beta-D-ribofuranosyl)pyrrolo[2,3-d][1,2,3]triazines and the novel 3-amino-5-methyl-1-(beta-D-ribofuranosyl)- and 3-amino-5-methyl-1-(2-deoxy-beta-D-ribofuranosyl)-1,5-dihydro-1,4,5,6,7,8-hexaazaacenaphthylene as analogues of …” (J Med Chem, 2005).

Experiments:
Human betaherpesvirus 5 [1] = assay: Inhibitory concentration against human cytomegalovirus using plaque assay; assay type: functional, organism-based
Human alphaherpesvirus 1 = assay: Inhibitory concentration against human herpes simplex virus type 1 using ELISA test; assay type: functional, organism-based
KB = assay: Inhibitory concentration was determined for KB cell growth; assay type: functional, cell-based; conditions: Homo sapiens
HFF = assay: Visual cytotoxicity was determined in uninfected HFF cells using plaque assay; assay type: functional, cell-based; conditions: Homo sapiens
[2] = test system: Human immunodeficiency virus 1; assay: Inhibitory concentration against human immunodeficiency virus type 1; assay type: functional, organism-based
Human betaherpesvirus 5 [3] = assay: Inhibitory concentration against human cytomegalovirus using yield-reduction assay; assay type: functional

Work on CN(N)c1nnnc2c1c(C#N)cn2[C@@H]1O[C@H](COC(=O)c2ccccc2)[C@@H](OC(=O)c2ccccc2)[C@H]1OC(=O)c1ccccc1 yielded an IC50 (Human betaherpesvirus 5 [1]) greater than 10 µM, an IC50 (Human alphaherpesvirus 1) greater than 10 µM and an IC50 (KB) greater than 10 µM. It also gave an IC50 (HFF) greater than 10 µM.
In the case of CN1N=C(N)c2cn([C@@H]3O[C@H](CO)[C@@H](O)[C@H]3O)c3nnnc1c23, the IC50 (Human betaherpesvirus 5 [1]) is reported as 14 µM, the IC50 (Human alphaherpesvirus 1) is reported as greater than 100 µM and the IC50 (KB) is reported as 2.5 µM. The IC50 (HFF) was 10 µM and the IC50 [2] was 0.6 µM.
For NC(=O)c1cn([C@@H]2O[C@H](COC(=O)c3ccccc3)[C@@H](OC(=O)c3ccccc3)[C@H]2OC(=O)c2ccccc2)c(N)c1C(N)=O, the IC50 (Human betaherpesvirus 5 [1]) was greater than 10 µM, the IC50 (Human alphaherpesvirus 1) was greater than 10 µM and the IC50 (KB) was greater than 10 µM. The IC50 (HFF) was greater than 10 µM.
N#Cc1cn([C@@H]2O[C@H](COC(=O)c3ccccc3)[C@@H](OC(=O)c3ccccc3)[C@H]2OC(=O)c2ccccc2)c2nnnc(-n3cncn3)c12 showed an IC50 (Human betaherpesvirus 5 [1]) greater than 10 µM, an IC50 (Human alphaherpesvirus 1) greater than 10 µM and an IC50 (KB) greater than 10 µM. The IC50 (HFF) was greater than 10 µM.
Molecule N/C(=N\O)c1cn([C@@H]2O[C@H](CO)[C@@H](O)[C@H]2O)c2nnnc(N)c12 has an IC50 (Human betaherpesvirus 5 [1]) of less than 2 µM, an IC50 (Human alphaherpesvirus 1) of 0.9 µM and an IC50 (KB) of 1.5 µM. It also gave an IC50 (HFF) of 6.6 µM.
CCOC(=O)c1cn([C@@H]2O[C@H](CO)[C@@H](O)[C@H]2O)c2nnnc(N)c12 gave an IC50 (Human betaherpesvirus 5 [1]) greater than 100 µM, an IC50 (Human alphaherpesvirus 1) greater than 100 µM and an IC50 (KB) of 80 µM. The IC50 (HFF) was greater than 100 µM.
Cc1ccc(C(=O)OC[C@H]2O[C@@H](n3cc(C(N)=O)c(C(N)=O)c3[N+](=O)[O-])C[C@@H]2OC(=O)c2ccc(C)cc2)cc1 was tested, and the IC50 (Human betaherpesvirus 5 [1]) was 32 µM, the IC50 (Human alphaherpesvirus 1) was greater than 100 µM and the IC50 (HFF) was 32 µM.
For N#C/N=C(\N)c1cn([C@@H]2O[C@H](CO)[C@@H](O)[C@H]2O)c2nnnc(N)c12, the IC50 (Human betaherpesvirus 5 [1]) was greater than 100 µM, the IC50 (Human alphaherpesvirus 1) was greater than 100 µM and the IC50 (KB) was 5 µM. For the same molecule, the IC50 (HFF) was greater than 100 µM.
With Cc1ccc(C(=O)OC[C@H]2O[C@@H](n3cc(C(N)=O)c(C(N)=O)c3N)C[C@@H]2OC(=O)c2ccc(C)cc2)cc1 the IC50 (Human betaherpesvirus 5 [1]) was 12 µM, the IC50 (Human alphaherpesvirus 1) was greater than 100 µM and the IC50 (KB) was 100 µM. The IC50 (HFF) was 32 µM.
With N=C(NN)c1cn([C@@H]2O[C@H](CO)[C@@H](O)[C@H]2O)c2nnnc(N)c12 the IC50 (Human betaherpesvirus 5 [1]) was 32 µM, the IC90 (Human betaherpesvirus 5 [3]) was 1 µM and the IC50 (Human alphaherpesvirus 1) was 80 µM. It also gave an IC50 (KB) of 3 µM and an IC50 (HFF) of 32 µM.
In the case of NC(=S)c1cn([C@@H]2O[C@H](CO)[C@@H](O)[C@H]2O)c2nnnc(N)c12, the IC50 (Human betaherpesvirus 5 [1]) is reported as 8.5 µM, the IC50 (Human alphaherpesvirus 1) is reported as 40 µM and the IC50 (KB) is reported as 2 µM. The IC50 (HFF) was 32 µM.
Work on NC(=O)c1cn([C@@H]2O[C@H](CO)[C@@H](O)[C@H]2O)c2nnnc(N)c12 yielded an IC50 (Human betaherpesvirus 5 [1]) of 0.3 µM, an IC90 (Human betaherpesvirus 5 [3]) of 0.4 µM and an IC50 (Human alphaherpesvirus 1) of 2.5 µM. For the same molecule, the IC50 (KB) was 0.08 µM and the IC50 (HFF) was 0.3 µM.
For COC(=N)c1cn([C@@H]2O[C@H](CO)[C@@H](O)[C@H]2O)c2nnnc(N)c12, the IC50 (Human betaherpesvirus 5 [1]) was 32 µM, the IC50 (Human alphaherpesvirus 1) was greater than 100 µM and the IC50 (KB) was 20 µM. The IC50 (HFF) was 21 µM.
In the case of NC(=O)c1cn([C@@H]2O[C@H](COC(=O)c3ccccc3)[C@@H](OC(=O)c3ccccc3)[C@H]2OC(=O)c2ccccc2)c2nnnc(O)c12, the IC50 (Human betaherpesvirus 5 [1]) is reported as greater than 10 µM, the IC50 (Human alphaherpesvirus 1) is reported as greater than 10 µM and the IC50 (KB) is reported as greater than 10 µM. It also gave an IC50 (HFF) greater than 10 µM.
